Molecular target: serotonin-1 receptors (5-HT1A and/or 5-HT1B)
Assay: radioligand binding assay for serotonin-1 receptor affinity (IC50)
Details: receptor subtype not given
From the text: The affinities of the compounds of this invention for the various serotonin-1 receptors can be determined using standard radioligand binding assays as described in the literature. The 5-HT1A affinity can be measured using the procedure of Hoyer et al. (Brain Res., 376, 85 (1986)). The 5-HT1B affinity can be measured using the procedure of Heuring and Peroutka (J. Neurosci., 7, 894 (1987)).
The in vitro activity of the compounds of the present invention at the 5-HT1B binding site can be determined according to the following procedure. Bovine caudate tissue is homogenized and suspended in 20 volumes of a buffer containing 50 mM TRIS•hydrochloride (tris[hydroxymethyl]aminomethane hydrochloride) at a pH of 7.7. The homogenate is then centrifuged at 45,000 G for 10 minutes. The supernatant is then discarded and the resulting pellet resuspended in approximately 20 volumes of 50 mM TRIS•hydrochloride buffer at pH 7.7. […]
The inhibitor, control or vehicle is then incubated according to the following procedure. […] The percent inhibition can be calculated for each dose of the compound. An IC50 value can then be calculated from the percent inhibition values.
The activity of the compounds of the present invention for 5-HT1A binding ability can be determined according to the following procedure. […] The tissue is stored at −70° C. until ready for an experiment. […]

IC50: ≤ 100 nM
Structure (SMILES): CCC(O)(c1ccc(N2CC[C@@H](Cc3ccccc3N3CCN(C)CC3)C2=O)cn1)C(C)O (stereo in doubt) [Formula I, 1-[6-(1-ethyl-1,2-dihydroxy-propyl)-pyridin-3-yl]-3-[2-(4-methyl-piperazin-1-yl)-benzyl]-pyrrolidin-2-one]

— patent US20090286804A1, “METABOLITES OF 1-[6-(1-ETHYL-1-HYDROXY-PROPYL)-PYRIDIN-3-YL]-3-[2-(4-METHYL-PIPERAZIN-1-YL)-BENZYL]-PYRROLIDIN-2-ONE AS SERATONIN RECEPTOR ANTAGONISTS” (Pfizer Inc, priority 2005, published 2009)
